Values after ≈ are worked out from the molar mass of the structure shown.
Columns and labels:
[1] = Distribution coefficient 1‐octanol / aqueous phosphate buffer; assay type: physicochemical; conditions: pH 7.4
Aqueous solubility = assay type: physicochemical; conditions: aqueous medium at pH 7.4, pH 7.4, aqueous buffer

logD [1]	solubility (Aqueous solubility) [µM]	Compound
4.6	28 (≈ 11.1 µg/mL)	c1cc(CNCc2cc3ccccc3o2)cc(CNCc2cc3ccccc3o2)c1 [compound 29]
–	3 (≈ 1.27 µg/mL)	O=C(NCc1cccc(CNC(=O)c2cc3ccccc3o2)c1)c1cc2ccccc2o1 [compound 28]

Reference: paper PMC9826068 (Chemistry (Weinheim an Der Bergstrasse, Germany), 2022)
